≈ marks a conversion by molar mass, not a printed value.
Key:
[1] = test system: Microsporum audouinii; assay: Microbicidal activity against Microsporum audouinii by liquid microdilution assay; type: functional
[2] = test system: Candida albicans; assay: Microbicidal activity against Candida albicans by liquid microdilution assay; type: functional
[3] = Antiinflammatory activity against rat PMN assessed as inhibition of PAF-induced beta-glucuronidase release relative to control; type: functional
[4] = test system: Staphylococcus aureus; assay: Antimicrobial activity against methicillin-sensitive Staphylococcus aureus; type: functional
[5] = test system: Microsporum audouinii; assay: Antimicrobial activity against Microsporum audouinii by liquid microdilution assay; type: functional
[6] = test system: Citrobacter freundii; assay: Microbicidal activity against Citrobacter freundii by liquid microdilution assay; type: functional
[7] = test system: Salmonella typhi; assay: Antimicrobial activity against Salmonella typhi by liquid microdilution assay; type: functional, Salmonella enterica subsp. enterica serovar Typhi; settings: Salmonella enterica
[8] = Antioxidant activity in liver (unknown origin) assessed as inhibition of Fe2+/cysteine system-induced lipid peroxidation; type: functional, tissue-based; settings: dose or concentration not given here
[9] = test system: Escherichia coli; assay: Microbicidal activity against Escherichia coli by liquid microdilution assay; type: functional
[10] = test system: RAW264.7; assay: Antiinflammatory activity against mouse RAW264.7 cells assessed as reduction of IFNgamma-induced NO production; type: functional, cell-based
[11] = test system: Shigella dysenteriae; assay: Microbicidal activity against Shigella dysenteriae by liquid microdilution assay; type: functional
[12] = Antifungal activity against Fusarium solani f. sp. mori; type: functional
[13] = Antifungal activity against Diaporthe nomurai; type: functional
[14] = test system: Enterococcus faecalis; assay: Microbicidal activity against Streptococcus faecalis by liquid microdilution assay; type: functional
[15] = test system: Escherichia coli; assay: Antimicrobial activity against Escherichia coli by liquid microdilution assay; type: functional
[16] = test system: Pseudomonas aeruginosa; assay: Antimicrobial activity against Pseudomonas aeruginosa by liquid microdilution assay; type: functional
[17] = Antifungal activity against Fusarium roseum; type: functional
[18] = test system: Staphylococcus aureus; assay: Inhibition of fatty acid biosynthesis in Staphylococcus aureus assessed as incorporation of [1-14C]acetate by scintillation counting analysis; type: functional, organism-based
[19] = test system: Staphylococcus aureus; assay: Antimicrobial activity against methicillin-resistant Staphylococcus aureus CCARM3167 assessed as inhibition of cell growth by broth microdilution method; type: functional
[20] = test system: Escherichia coli; assay: Antimicrobial activity against Escherichia coli; type: functional
[21] = Inhibition of alpha-glucosidase (unknown origin); parameters: species or system Homo sapiens
[22] = test system: Micrococcus luteus; assay: Antimicrobial activity against Micrococcus luteus; type: functional
[23] = test system: Staphylococcus aureus; assay: Antimicrobial activity against Staphylococcus aureus by liquid microdilution assay; type: functional
[24] = test system: Candida albicans; assay: Antimicrobial activity against Candida albicans by liquid microdilution assay; type: functional
[25] = molecular target: Enoyl-[acyl-carrier-protein] reductase [NADPH] FabI (Staphylococcus aureus, UniProt Q6GI75); assay: Inhibition of Staphylococcus aureus FabI-mediated trans-2-octenoyl N-acetylcysteamine (t-o-NAC thioester) substrate reduction assessed as decrease in NADPH […]
[26] = test system: Bacillus cereus; assay: Microbicidal activity against Bacillus cereus by liquid microdilution assay; type: functional
[27] = test system: Klebsiella pneumoniae; assay: Microbicidal activity against Klebsiella pneumoniae by liquid microdilution assay; type: functional
[28] = test system: Klebsiella pneumoniae; assay: Antimicrobial activity against Klebsiella pneumoniae; type: functional
[29] = test system: Pseudomonas aeruginosa; assay: Antimicrobial activity against Pseudomonas aeruginosa; type: functional
[30] = test system: Morus alba; assay: Antioxidant activity in mulberry leaves assessed as UV-stress-induced free radical scavenging activity measured as inhibition of blue formazan at 100 uM; type: functional
[31] = test system: Staphylococcus aureus; assay: Inhibition of protein biosynthesis in Staphylococcus aureus assessed as incorporation of [14C]leucine by scintillation counting analysis; type: functional, organism-based
[32] = test system: Bacillus subtilis; assay: Antimicrobial activity against Bacillus subtilis; type: functional
[33] = test system: Bacillus cereus; assay: Antimicrobial activity against Bacillus cereus by liquid microdilution assay; type: functional
[34] = test system: Citrobacter freundii; assay: Antimicrobial activity against Citrobacter freundii by liquid microdilution assay; type: functional
[35] = Antifungal activity against Fusarium lateritium f. sp. mori; type: functional
[36] = test system: Klebsiella pneumoniae; assay: Antimicrobial activity against Klebsiella pneumoniae by liquid microdilution assay; type: functional
[37] = test system: Pseudomonas aeruginosa; assay: Microbicidal activity against Pseudomonas aeruginosa by liquid microdilution assay; type: functional
[38] = test system: Staphylococcus aureus; assay: Antimicrobial activity against Staphylococcus aureus RN4220 assessed as inhibition of cell growth by broth microdilution method; type: functional
[39] = Antifungal activity against Stigmina mori; type: functional
[40] = test system: Shigella dysenteriae; assay: Antimicrobial activity against Shigella dysenteriae by liquid microdilution assay; type: functional
[41] = Antifungal activity against Cochliobolus miyabeanus; type: functional; settings: Bipolaris oryzae
[42] = test system: Staphylococcus aureus; assay: Antimicrobial activity against methicillin-resistant Staphylococcus aureus; type: functional
[43] = test system: Staphylococcus aureus; assay: Microbicidal activity against Staphylococcus aureus by liquid microdilution assay; type: functional
[44] = test system: RAW264.7; assay: Antiinflammatory activity against mouse RAW264.7 cells assessed as reduction of LPS-induced NO production; type: functional, cell-based
[45] = test system: Salmonella typhi; assay: Microbicidal activity against Salmonella typhi by liquid microdilution assay; type: functional, Salmonella enterica subsp. enterica serovar Typhi; settings: Salmonella enterica
[46] = test system: Enterococcus faecalis; assay: Antimicrobial activity against Streptococcus faecalis by liquid microdilution assay; type: functional
[47] = test system: Rosellinia necatrix; assay: Antifungal activity against Rosellinia necatrix; type: functional
[48] = molecular target: T1, Hypoxia-inducible factor 1-alpha (Homo sapiens, UniProt Q16665); assay: Inhibition of HIF-1alpha in human Hep3B cells assessed as decrease in VEGF level at > 50 uM after 20 hrs by ELISA; type: cell-based; settings: hep 3b2
[49] = test system: Mus musculus; assay: Hypoglycemic activity in alloxan-induced diabetic mouse assessed as fasting blood glucose level at 10 mg/kg; type: functional
[50] = molecular target: T1, Hypoxia-inducible factor 1-alpha; assay: Inhibition of HIF-1alpha in human Hep3B cells cotransfected with pGL3-HRE-luciferase plasmid at > 50 uM after 24 hrs by dual-luciferase reporter assay; type: cell-based; settings: hep 3b2
[51] = test system: Mus musculus; assay: Hypoglycemic activity in alloxan-induced diabetic mouse assessed as fasting blood glucose level at 50 mg/kg; type: functional
[52] = Cytotoxicity against human Hep3B cells assessed as cell viability after 24 hrs by MTT assay; type: cell-based, Hep 3B2

T1 sequence (Q16665 whole entry): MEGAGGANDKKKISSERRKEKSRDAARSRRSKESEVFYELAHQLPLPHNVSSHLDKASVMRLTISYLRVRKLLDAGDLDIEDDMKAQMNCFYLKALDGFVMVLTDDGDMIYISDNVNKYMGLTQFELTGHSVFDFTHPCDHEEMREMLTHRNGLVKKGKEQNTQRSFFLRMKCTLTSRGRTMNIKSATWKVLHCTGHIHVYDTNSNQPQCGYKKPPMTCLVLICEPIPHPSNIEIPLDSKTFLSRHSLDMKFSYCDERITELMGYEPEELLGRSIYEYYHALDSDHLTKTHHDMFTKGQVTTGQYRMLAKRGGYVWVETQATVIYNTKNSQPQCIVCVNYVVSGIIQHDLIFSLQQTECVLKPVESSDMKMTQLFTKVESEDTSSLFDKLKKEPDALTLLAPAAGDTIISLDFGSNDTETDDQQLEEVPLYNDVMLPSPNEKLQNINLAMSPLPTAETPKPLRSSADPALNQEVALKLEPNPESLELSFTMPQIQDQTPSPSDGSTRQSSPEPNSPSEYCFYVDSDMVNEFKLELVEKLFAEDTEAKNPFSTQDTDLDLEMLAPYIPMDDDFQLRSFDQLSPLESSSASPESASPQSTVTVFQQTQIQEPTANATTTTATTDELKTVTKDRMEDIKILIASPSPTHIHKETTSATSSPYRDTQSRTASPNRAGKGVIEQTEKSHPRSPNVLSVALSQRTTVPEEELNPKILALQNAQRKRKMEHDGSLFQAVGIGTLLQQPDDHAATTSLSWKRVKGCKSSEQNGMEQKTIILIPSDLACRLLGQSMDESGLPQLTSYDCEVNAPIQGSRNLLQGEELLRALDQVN
Chain of Enoyl-[acyl-carrier-protein] reductase [NADPH] FabI (Q6GI75 whole entry): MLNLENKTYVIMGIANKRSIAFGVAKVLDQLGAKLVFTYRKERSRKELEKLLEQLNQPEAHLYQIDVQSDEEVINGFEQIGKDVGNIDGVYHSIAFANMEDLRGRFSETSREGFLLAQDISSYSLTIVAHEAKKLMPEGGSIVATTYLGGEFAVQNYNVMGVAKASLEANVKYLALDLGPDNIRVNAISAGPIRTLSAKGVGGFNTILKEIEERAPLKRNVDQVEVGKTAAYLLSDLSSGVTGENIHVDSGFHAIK

In the case of CC(C)=CCc1c(O)cc(-c2cc3ccc(O)cc3o2)cc1O [MORACIN C], the MFC [1] is reported as 312 µg/mL (≈ 1010 µM), the MFC [2] is reported as 156 µg/mL (≈ 503 µM) and the “inhibition (INH)” value [3] is reported as 100%. The MIC [4] was 6.25 µg/mL (≈ 20.1 µM), the MIC [5] was 78 µg/mL (≈ 251 µM) and the MBC [6] was 625 µg/mL (≈ 2010 µM). The MIC [7] was 10 µg/mL (≈ 32.2 µM), the inhibition [8] was 73% and the MBC [9] was 78 µg/mL (≈ 251 µM). For the same molecule, the IC50 [10] was 8 µM, the MBC [11] was 39 µg/mL (≈ 126 µM) and the MIC [12] was 224 µg/mL (≈ 722 µM). For the same molecule, the MIC [13] was 14 µg/mL (≈ 45.1 µM), the MBC [14] was 78 µg/mL (≈ 251 µM) and the MIC [15] was 39 µg/mL (≈ 126 µM). For the same molecule, the MIC [16] was 10 µg/mL (≈ 32.2 µM), the MIC [17] was 3.5 µg/mL (≈ 11.3 µM) and the IC50 [18] was 74.8 µM. It also gave an MIC [19] of 32 µg/mL (≈ 103 µM), an MIC [20] of over 100 µg/mL and an IC50 [21] of 4.04 µM. The MIC [22] was 12.5 µg/mL (≈ 40.3 µM), the MIC [23] was 78 µg/mL (≈ 251 µM) and the MIC [24] was 68 µg/mL (≈ 219 µM). The IC50 [25] was 83.8 µM, the MBC [26] was 156 µg/mL (≈ 503 µM) and the MBC [27] was 625 µg/mL (≈ 2010 µM). It also gave an MIC [28] of over 100 µg/mL, an MIC [29] of over 100 µg/mL and an inhibition [30] of 64%. For the same molecule, the IC50 [31] was 188 µM, the MIC [32] was 3.13 µg/mL (≈ 10.1 µM) and the MIC [33] was 78 µg/mL (≈ 251 µM). The MIC [34] was 156 µg/mL (≈ 503 µM), the MIC [35] was 7 µg/mL (≈ 22.6 µM) and the MIC [36] was 312 µg/mL (≈ 1010 µM). The MBC [37] was 39 µg/mL (≈ 126 µM), the MIC [38] was 32 µg/mL (≈ 103 µM) and the MIC [39] was 112 µg/mL (≈ 361 µM). It also gave an MIC [40] of 5 µg/mL (≈ 16.1 µM), an MIC [41] of 28 µg/mL (≈ 90.2 µM) and an MIC [42] of 12.5 µg/mL (≈ 40.3 µM). For the same molecule, the MBC [43] was 156 µg/mL (≈ 503 µM), the IC50 [44] was 8 µM and the MBC [45] was 39 µg/mL (≈ 126 µM). It also gave an MIC [46] of 39 µg/mL (≈ 126 µM) and an MIC [47] of 3.5 µg/mL (≈ 11.3 µM).

With Oc1cc(O)cc(-c2cc3ccc(O)cc3o2)c1 [MORACIN M] the IC50 [48] was “Not Active”, the MFC [1] was 312 µg/mL (≈ 1290 µM) and the “inhibition (INH)” value [3] was 54%. The MIC [4] was 12.5 µg/mL (≈ 51.6 µM), the MIC [5] was 78 µg/mL (≈ 322 µM) and the MIC [7] was 78 µg/mL (≈ 322 µM). For the same molecule, the MBC [9] was 625 µg/mL (≈ 2580 µM), the Activity [49] was 18.52 mmol/L and the MBC [11] was 156 µg/mL (≈ 644 µM). It also gave an MBC [14] of 156 µg/mL (≈ 644 µM), an MIC [15] of 78 µg/mL (≈ 322 µM) and an MIC [16] of 156 µg/mL (≈ 644 µM). The MIC [20] was over 100 µg/mL, the MIC [22] was 25 µg/mL (≈ 103 µM) and the MBC [27] was 625 µg/mL (≈ 2580 µM). For the same molecule, the MIC [28] was over 100 µg/mL, the IC50 [50] was “Not Active” and the MIC [29] was over 100 µg/mL. For the same molecule, the Activity [51] was 20.08 mmol/L, the IC50 [52] was over 30 µM and the MIC [32] was 100 µg/mL (≈ 413 µM). It also gave an MIC [34] of 312 µg/mL (≈ 1290 µM), an MIC [36] of 312 µg/mL (≈ 1290 µM) and an MBC [37] of 625 µg/mL (≈ 2580 µM). It also gave an MIC [40] of 78 µg/mL (≈ 322 µM), an MIC [42] of 25 µg/mL (≈ 103 µM) and an MBC [45] of 156 µg/mL (≈ 644 µM). The MIC [46] was 78 µg/mL (≈ 322 µM).
